The values that follow come from patent US8604009B2, “(20S)-2-methylene-19-nor-22-dimethyl-1α,25-dihydroxyvitamin D3 and (20R)-2-methylene-19-nor-22-dimethyl-1α,25-hydroxyvitamin D3” (Wisconsin Alumni Research Foundation, priority 2010, dated 2013).

Entries after “also recorded” stand apart in the source; their conditions may differ. Read-outs that look alike come from different tables or passages of the source.

Series [1] has as its target T1, full-length recombinant rat vitamin D receptor (Rattus norvegicus, UniProt P13053).
T1 construct: Full-length recombinant rat receptor was expressed in E. coli BL21(DE3) Codon Plus RIL cells; histidine tag (C); made in house; host or cells: E. coli BL21(DE3) Codon Plus RIL
T1 sequence (P13053 1-423): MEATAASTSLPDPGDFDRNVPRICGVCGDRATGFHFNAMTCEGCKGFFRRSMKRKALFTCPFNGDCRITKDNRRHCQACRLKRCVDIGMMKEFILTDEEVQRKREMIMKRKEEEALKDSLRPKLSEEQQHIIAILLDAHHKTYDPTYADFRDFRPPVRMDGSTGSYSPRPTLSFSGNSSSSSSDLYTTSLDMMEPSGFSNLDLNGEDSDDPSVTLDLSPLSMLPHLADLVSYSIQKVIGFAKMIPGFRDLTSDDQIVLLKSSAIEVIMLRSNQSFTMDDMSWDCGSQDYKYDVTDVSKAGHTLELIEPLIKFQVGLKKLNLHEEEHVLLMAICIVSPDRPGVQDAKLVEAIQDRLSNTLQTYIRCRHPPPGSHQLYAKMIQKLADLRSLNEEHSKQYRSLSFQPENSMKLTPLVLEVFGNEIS
The following applies: data from U.S. Pat. No. 5,843,928 and J. Med. Chem. 1998, 41, 4662; read-out: Competitive VDR Binding (Ki); cited from earlier work.

The subject of series [2] is 24-hydroxylase (24-OHase) gene promoter in ROS 17/2.8 (bone) cells. The experiment in a line: In vitro transcription assay (24-hydroxylase promoter luciferase reporter). Type of series: cell-based. The procedure:
Transcription activity was measured in ROS 17/2.8 (bone) cells that were stably transfected with a 24-hydroxylase (24-Ohase) gene promoter upstream of a luciferase reporter gene (Arbour et al., Analytical Biochem. (1998) 255(1):148-154). Cells were given a range of doses. Sixteen hours after dosing the cells were harvested and luciferase activities were measured using a luminometer. RLU=relative luciferase units.

The target in series [3] is T1, full-length recombinant rat vitamin D receptor. The experiment in a line: Competitive vitamin D receptor binding. The note with it: for binding to the nuclear vitamin D receptor compared with 1,25(OH)2D3: in words. The procedure: The first system was a nickel affinity resin that utilizes the C-terminal histidine tag on this protein. The protein that was eluted from this resin was further purified using ion exchange chromatography (S-Sepharose Fast Flow). Aliquots of the purified protein were quick frozen in liquid nitrogen and stored at −80° C. until use. For use in binding assays, the protein was diluted in TEDK50 (50 mM Tris, 1.5 mM EDTA, pH 7.4, 5 mM DTT, 150 mM KCl) with 0.1% Chaps detergent. The receptor protein and ligand concentration was optimized such that no more than 20% of the added radiolabeled ligand was bound to the receptor.
Radiolabeled and unlabeled ligands were added to 100 μL of the diluted protein at a final ethanol concentration of ≦10%, mixed and incubated overnight on ice to reach binding equilibrium. The following day, 100 μL of hydroxylapatite slurry (50%) was added to each tube and mixed at 10-minute intervals for 30 minutes. The hydroxylapaptite was collected by centrifugation and then washed three times with Tris-EDTA buffer (50 mM Tris, 1.5 mM EDTA, pH 7.4) containing 0.5% Titron X-100. After the final wash, the pellets were transferred to scintillation vials containing 4 mL of Biosafe II scintillation cocktail, mixed and placed in a scintillation counter. Total binding was determined from the tubes containing only radiolabeled ligand.

Series [4] has as its system bone calcium mobilization. The experiment in a line: Bone calcium mobilization (serum calcium). Type of series: in vivo, rat. The following applies: at 780 pM dosage. The procedure:
(§1) Male, weanling Sprague-Dawley rats were placed on Diet 11 (0.47% Ca) diet+AEK oil for one week followed by Diet 11 (0.02% Ca)+AEK oil for 3 weeks. The rats were then switched to a diet containing 0.47% Ca for one week followed by two weeks on a diet containing 0.02% Ca. Dose administration began during the last week on 0.02% calcium diet. Four consecutive intraperitoneal doses were given approximately 24 hours apart. Twenty-four hours after the last dose, blood was collected from the severed neck and the concentration of serum calcium determined as a measure of bone calcium mobilization. The first 10 cm of the intestine was also collected for intestinal calcium transport analysis using the everted gut sac method.

Series [5] has as its system HL-60 cells. Briefly: HL-60 differentiation (nitro blue tetrazolium reduction). Type of series: cell-based, human. The procedure: The study drugs were dissolved in ethanol and the concentrations determined using UV spectrophotometry. Serial dilutions were prepared so that a range of drug concentrations could be tested without changing the final concentration of ethanol (≦0.2%) present in the cell cultures.
Human promyelocytic leukemia (HL60) cells were grown in RPMI-1640 medium containing 10% fetal bovine serum. The cells were incubated at 37° C. in the presence of 5% CO2.
HL60 cells were plated at 1.2×10^5 cells/mL. Eighteen hours after plating, cells in duplicate were treated with drug. Four days later, the cells were harvested and a nitro blue tetrazolium reduction assay was performed (Collins et al., J. Exp. Med. (1979) 149:969-974). The percentage of differentiated cells was determined by counting a total of 200 cells and recording the number that contained intracellular black-blue formazan deposits.

In series [6] the test system is intestinal calcium transport. The experiment in a line: Intestinal calcium transport (everted gut sac). The series is classed as in vivo, rat. The note with it: for Net Intestinal Ca2+ Transport (S/M): S/M = serosal Ca2+/mucosal Ca2+, at 780 pM dosage; for intestinal calcium transport activity compared with 1,25(OH)2D3: rat gut, in words. The protocol: as §1
[7] abbreviates: competition with 3H-1,25(OH)2D3, read-out: Ki, binding to the recombinant vitamin D receptor.

As for `C=C1C(O)CC(=CC=C2CCCC3(C)C2CCC3C(C)CCCC(C)(C)O)CC1O` [2MD (20R)], in series [1], the inhibition constant Ki was 0.12 nM.
Take `C=C1C(O)CC(=CC=C2CCCC3(C)C2CCC3C(C)C(C)(C)CCC(C)(C)O)CC1O` [MET-1, (20S)-2-methylene-19-nor-22-dimethyl-1α,25-dihydroxyvitamin D3]: the EC50 in series [2] (16 h, ROS 17/2.8 cells, 16 hours, read-out: concentration stimulating 24-OHase gene expression in bone cells) came out at 0.03 nM; in series [5] (Homo sapiens, HL-60, 96 h, HL-60 cells, 4 days, read-out: concentration inducing the differentiation of HL-60 cells in culture), 0.7 nM; in series [5] (present compounds, read-out: HL-60 Differentiation (EC50)) it was 0.7 nM. Besides, in series [3] (setting [7]), the inhibition constant (Ki) is 0.04 nM. In series [3], the “binding to the nuclear vitamin D receptor compared with 1,25(OH)2D3” value is “approximately equally effective as 1,25-(OH)2D3; also recorded: same affinity as 1,25(OH)2D3”. Also, the “Net Bone Ca2+ Mobilization” value in series [4] is recorded as 0.4 mg/dL. The “Net Intestinal Ca2+ Transport (S/M)” value in series [6] was determined as 2.3 S/M. Further, in series [6], the “intestinal calcium transport activity compared with 1,25(OH)2D3” value was “noticeably less active than 1,25-(OH)2D3; also recorded: less potent than 1,25(OH)2D3”.
Turning to `C=C1C(O)CC(=CC=C2CCCC3(C)C2CCC3C(C)C(C)(C)CCC(C)(C)O)CC1O` [MET-2, (20R)-2-methylene-19-nor-22-dimethyl-1α,25-dihydroxyvitamin D3], the melting point came out at 154 °C. Further, the EC50 in series [2] (ROS 17/2.8 cells, 16 hours, read-out: concentration stimulating 24-OHase gene expression in bone cells) came to 0.03 nM. Moreover, the EC50 in series [2] (present compounds, read-out: 24-OHase Transcription (EC50)) worked out at 0.6 nM. Further, in series [2] (relative to 1,25(OH)2D3), the “potency in 24-hydroxylase gene transcription, times more potent than 1,25(OH)2D3” value is on record as “about three” and the “potency in stimulating 24-OHase gene expression, times less potent than 1,25(OH)2D3” value is “about 3 times”. Moreover, in series [3] (setting [7]), the Ki turned out to be 0.05 nM. The “binding to the nuclear vitamin D receptor compared with 1,25(OH)2D3” value in series [3] is “equally effective as 1,25-(OH)2D3; also recorded: same affinity as 1,25(OH)2D3”. The inhibition constant (Ki) in series [3] (present compounds, read-out: Competitive VDR Binding (Ki)) was 0.05 nM. Also, the “Net Bone Ca2+ Mobilization” value in series [4] amounted to 0.2 mg/dL. Further, the EC50 in series [5] (HL-60 cells, 4 days, read-out: concentration inducing the differentiation of HL-60 cells in culture) was 0.7 nM. Also, the EC50 in series [5] (Homo sapiens, HL-60, present compounds, read-out: HL-60 Differentiation (EC50)) came to 1 nM. Moreover, in series [6], the “Net Intestinal Ca2+ Transport (S/M)” value is 1.2 S/M and the “intestinal calcium transport activity compared with 1,25(OH)2D3” value is reported as “noticeably less active than 1,25-(OH)2D3; also recorded: less potent than 1,25(OH)2D3”.
Regarding `C=C1C(O)CC(=CC=C2CCCC3(C)C2CCC3C(C)CCCC(C)(C)O)CC1O` [2MD (20S), 2-methylene-19-nor-1α,25-dihydroxyvitamin D3], the inhibition constant Ki in series [1] is 0.1 nM.

Broadly, the Ki is the equilibrium dissociation constant of an inhibitor or competing ligand from its target. The term melting point denotes the temperature of the solid-liquid transition.
